Measured values from ChEMBL document CHEMBL1201862, “PubChem BioAssay data set” (2004).
The source made the active and inactive calls.

How the values were obtained:
[1] = viability loss in THP-1 monocytes – THP-1 cells, cytotoxicity control for Vif-APOBEC3G degradation inhibitor project, dose response (AID 1117359); format: functional; conditions: THP-1
NS3 = NS3 (Hepatitis C virus, UniProt A3EZJ3); experiment: PubChem AID 2173; parameters: species or system Hepacivirus hominis
[2] = biological target: T1, Runt-related transcription factor 1/Core-binding factor subunit beta (Homo sapiens, UniProt Q01196+Q13951); experiment: Runt domain/CBFb-SMMHC interaction disruptors – biochemical, TR-FRET (AID 1438); format: protein assay
Phospholipase A2 = Phospholipase A2 (Homo sapiens, UniProt P04054); format: functional;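 also: confirmatory dose-response counterscreen on phospholipase A2, testing hits that came from an ultra-high-throughput screen for ATG4B inhibitors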
[3] = biological target: T1, Runt-related transcription factor 1/Core-binding factor subunit beta; experiment: disruptors of Runt domain/CBFb-SMMHC interaction – biochemical, FRET, Cerulean-Runt, Venus-CBFb-SMMHC, uHTS, […] (AID 1434); format: protein assay
Cysteine protease ATG4B = biological target: T2, Cysteine protease ATG4B (Homo sapiens, UniProt Q9Y4P1); format: functional;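 also: Fluorescence-based dose-response confirmation assay measuring inhibition of ATG4B activity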
T2 sequence (Q9Y4P1 whole entry): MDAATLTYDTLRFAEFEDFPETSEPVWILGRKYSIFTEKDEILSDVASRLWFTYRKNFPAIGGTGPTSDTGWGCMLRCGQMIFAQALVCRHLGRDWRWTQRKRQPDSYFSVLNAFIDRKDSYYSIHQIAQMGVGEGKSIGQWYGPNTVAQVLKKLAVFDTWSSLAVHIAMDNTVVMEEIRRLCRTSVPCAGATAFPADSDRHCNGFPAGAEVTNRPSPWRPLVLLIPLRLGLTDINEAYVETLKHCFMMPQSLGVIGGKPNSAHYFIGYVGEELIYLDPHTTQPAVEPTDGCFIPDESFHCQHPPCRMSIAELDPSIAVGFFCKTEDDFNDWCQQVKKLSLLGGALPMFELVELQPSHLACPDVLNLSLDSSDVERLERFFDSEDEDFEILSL

[4] = A Cell Based Secondary Assay To Explore Cytotoxicity of Compounds that Sensitize Mycobacterium Tuberculosis to Beta-Lactam Antibiotics.; format: functional
[5] = biological target: T3, Calpain-2 catalytic subunit (Sus scrofa, UniProt P43367); experiment: m-calpain protease blockers, concentration series – biochemical, fluorogenic peptide substrate, dose response (AID 1420); format: functional
T3 sequence (P43367 whole entry): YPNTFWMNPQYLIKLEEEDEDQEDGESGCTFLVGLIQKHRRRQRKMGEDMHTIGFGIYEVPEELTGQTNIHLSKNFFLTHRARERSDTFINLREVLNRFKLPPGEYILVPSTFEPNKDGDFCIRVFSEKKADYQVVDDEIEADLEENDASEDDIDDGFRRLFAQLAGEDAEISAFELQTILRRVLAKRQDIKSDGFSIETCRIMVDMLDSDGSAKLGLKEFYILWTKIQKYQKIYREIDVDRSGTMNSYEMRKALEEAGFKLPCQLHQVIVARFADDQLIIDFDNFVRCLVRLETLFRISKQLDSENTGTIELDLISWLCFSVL

Saccharomyces cerevisiae = experiment: S. cerevisiae Caspase-1/ASC signal blockers IC50, NALP1 inhibitor project selectivity test (AID 488863); format: functional, organism-based
[6] = biological target: NACHT, LRR and PYD domains-containing protein 1 (Homo sapiens, UniProt Q9C000); experiment: NALP1 inhibitors in yeast, dose response, luminescent (AID 488860); format: functional
Coagulation factor XII = Coagulation factor XII (Homo sapiens, UniProt P00748); format: functional;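 also: activated factor XIIa alpha cleaving a fluorogenic AMC peptide substrate; inhibitor potency from loss of enzyme activity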
Tumor necrosis factor = Tumor necrosis factor (Homo sapiens, UniProt P01375); experiment: analog potency on TNFa NF-kB signaling – cell-based, revised, SAR follow-up (AID 2337); format: functional
[7] = biological target: T4, Nucleotide-binding oligomerization domain-containing protein 1 (Homo sapiens, UniProt Q9Y239); experiment: blockers of NOD1 pathway activity – revised, SAR follow-up (AID 2333); format: functional
T4 sequence (Q9Y239 whole entry): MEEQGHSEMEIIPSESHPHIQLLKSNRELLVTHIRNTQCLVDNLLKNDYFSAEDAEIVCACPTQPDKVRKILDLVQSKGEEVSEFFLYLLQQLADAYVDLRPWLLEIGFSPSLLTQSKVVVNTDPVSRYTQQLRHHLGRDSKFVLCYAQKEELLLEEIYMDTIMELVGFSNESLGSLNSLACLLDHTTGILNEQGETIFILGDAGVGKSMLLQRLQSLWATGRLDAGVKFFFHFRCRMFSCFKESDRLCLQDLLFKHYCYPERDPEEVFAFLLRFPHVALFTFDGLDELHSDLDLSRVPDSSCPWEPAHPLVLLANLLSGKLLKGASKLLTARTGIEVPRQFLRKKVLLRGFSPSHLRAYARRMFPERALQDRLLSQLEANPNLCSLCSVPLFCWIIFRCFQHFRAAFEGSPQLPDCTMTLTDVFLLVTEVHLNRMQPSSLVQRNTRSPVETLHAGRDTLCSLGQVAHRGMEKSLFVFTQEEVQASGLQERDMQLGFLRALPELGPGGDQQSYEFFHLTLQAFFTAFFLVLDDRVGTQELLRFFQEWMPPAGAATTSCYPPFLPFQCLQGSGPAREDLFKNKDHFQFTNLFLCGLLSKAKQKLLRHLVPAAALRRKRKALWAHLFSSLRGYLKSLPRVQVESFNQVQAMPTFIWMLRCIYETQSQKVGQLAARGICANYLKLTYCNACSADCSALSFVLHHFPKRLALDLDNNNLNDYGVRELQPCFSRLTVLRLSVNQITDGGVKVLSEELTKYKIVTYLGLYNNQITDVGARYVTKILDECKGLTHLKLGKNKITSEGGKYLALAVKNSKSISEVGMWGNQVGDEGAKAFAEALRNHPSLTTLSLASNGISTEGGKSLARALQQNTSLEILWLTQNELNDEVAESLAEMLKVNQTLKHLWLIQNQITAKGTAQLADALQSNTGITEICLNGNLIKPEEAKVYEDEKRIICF

HEK293 = experiment: cells; conditions: Homo sapiens;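 also: cells exposed to compound for 14 hours overnight before viability readout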
[8] = biological target: Phosphoethanolamine/phosphocholine phosphatase (Homo sapiens, UniProt Q8TCT1); experiment: SAR assay for compounds that inhibit PHOSPHO1. [Related pubchem assays (depositor defined):AID1545, AID1565, AID1574]
Sequence of Phosphoethanolamine/phosphocholine phosphatase (Q8TCT1 whole entry): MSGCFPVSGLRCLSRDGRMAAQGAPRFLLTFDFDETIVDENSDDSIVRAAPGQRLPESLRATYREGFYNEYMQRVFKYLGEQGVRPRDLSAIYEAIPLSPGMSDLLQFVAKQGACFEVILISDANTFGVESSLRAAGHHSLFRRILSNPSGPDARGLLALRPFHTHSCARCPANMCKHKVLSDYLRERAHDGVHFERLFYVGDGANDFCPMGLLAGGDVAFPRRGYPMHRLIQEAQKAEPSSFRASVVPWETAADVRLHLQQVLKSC

T1 sequence (Q01196 whole entry, the tested form may be a part): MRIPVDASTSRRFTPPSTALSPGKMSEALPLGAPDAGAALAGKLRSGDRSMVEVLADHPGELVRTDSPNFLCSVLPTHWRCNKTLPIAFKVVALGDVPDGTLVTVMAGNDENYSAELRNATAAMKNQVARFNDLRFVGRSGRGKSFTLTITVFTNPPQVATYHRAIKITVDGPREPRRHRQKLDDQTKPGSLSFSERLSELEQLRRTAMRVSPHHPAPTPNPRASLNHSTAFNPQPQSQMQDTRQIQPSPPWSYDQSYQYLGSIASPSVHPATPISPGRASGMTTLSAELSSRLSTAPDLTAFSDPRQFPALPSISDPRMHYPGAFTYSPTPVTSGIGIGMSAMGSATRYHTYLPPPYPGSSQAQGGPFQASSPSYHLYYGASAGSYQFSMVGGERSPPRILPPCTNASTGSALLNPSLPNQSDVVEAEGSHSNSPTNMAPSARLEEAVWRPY
T1 sequence (Q13951 whole entry, the tested form may be a part): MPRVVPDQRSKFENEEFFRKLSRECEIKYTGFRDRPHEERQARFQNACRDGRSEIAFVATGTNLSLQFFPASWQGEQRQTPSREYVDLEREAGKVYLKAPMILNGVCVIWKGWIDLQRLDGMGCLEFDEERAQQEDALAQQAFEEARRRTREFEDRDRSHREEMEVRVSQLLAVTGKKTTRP
Sequence of Coagulation factor XII (P00748 20-372 limits assumed): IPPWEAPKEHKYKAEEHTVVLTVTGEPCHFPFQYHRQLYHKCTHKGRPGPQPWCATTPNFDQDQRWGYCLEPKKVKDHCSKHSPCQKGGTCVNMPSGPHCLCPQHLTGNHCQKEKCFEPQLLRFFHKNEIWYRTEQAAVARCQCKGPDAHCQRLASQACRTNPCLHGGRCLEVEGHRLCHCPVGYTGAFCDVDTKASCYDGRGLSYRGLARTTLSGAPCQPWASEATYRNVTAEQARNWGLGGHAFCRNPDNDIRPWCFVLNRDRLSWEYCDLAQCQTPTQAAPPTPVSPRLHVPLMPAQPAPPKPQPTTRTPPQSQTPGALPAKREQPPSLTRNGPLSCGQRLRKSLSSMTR
Sequence of Coagulation factor XII (P00748 373-615 limits assumed): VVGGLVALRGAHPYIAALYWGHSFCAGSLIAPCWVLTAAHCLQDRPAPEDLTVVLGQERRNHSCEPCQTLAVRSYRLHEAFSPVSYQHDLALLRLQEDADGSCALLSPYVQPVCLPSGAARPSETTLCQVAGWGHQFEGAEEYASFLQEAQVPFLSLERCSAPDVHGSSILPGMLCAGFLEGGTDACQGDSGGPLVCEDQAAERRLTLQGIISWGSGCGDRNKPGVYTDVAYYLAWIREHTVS
Sequence of NACHT, LRR and PYD domains-containing protein 1 (Q9C000 1-1212 limits assumed): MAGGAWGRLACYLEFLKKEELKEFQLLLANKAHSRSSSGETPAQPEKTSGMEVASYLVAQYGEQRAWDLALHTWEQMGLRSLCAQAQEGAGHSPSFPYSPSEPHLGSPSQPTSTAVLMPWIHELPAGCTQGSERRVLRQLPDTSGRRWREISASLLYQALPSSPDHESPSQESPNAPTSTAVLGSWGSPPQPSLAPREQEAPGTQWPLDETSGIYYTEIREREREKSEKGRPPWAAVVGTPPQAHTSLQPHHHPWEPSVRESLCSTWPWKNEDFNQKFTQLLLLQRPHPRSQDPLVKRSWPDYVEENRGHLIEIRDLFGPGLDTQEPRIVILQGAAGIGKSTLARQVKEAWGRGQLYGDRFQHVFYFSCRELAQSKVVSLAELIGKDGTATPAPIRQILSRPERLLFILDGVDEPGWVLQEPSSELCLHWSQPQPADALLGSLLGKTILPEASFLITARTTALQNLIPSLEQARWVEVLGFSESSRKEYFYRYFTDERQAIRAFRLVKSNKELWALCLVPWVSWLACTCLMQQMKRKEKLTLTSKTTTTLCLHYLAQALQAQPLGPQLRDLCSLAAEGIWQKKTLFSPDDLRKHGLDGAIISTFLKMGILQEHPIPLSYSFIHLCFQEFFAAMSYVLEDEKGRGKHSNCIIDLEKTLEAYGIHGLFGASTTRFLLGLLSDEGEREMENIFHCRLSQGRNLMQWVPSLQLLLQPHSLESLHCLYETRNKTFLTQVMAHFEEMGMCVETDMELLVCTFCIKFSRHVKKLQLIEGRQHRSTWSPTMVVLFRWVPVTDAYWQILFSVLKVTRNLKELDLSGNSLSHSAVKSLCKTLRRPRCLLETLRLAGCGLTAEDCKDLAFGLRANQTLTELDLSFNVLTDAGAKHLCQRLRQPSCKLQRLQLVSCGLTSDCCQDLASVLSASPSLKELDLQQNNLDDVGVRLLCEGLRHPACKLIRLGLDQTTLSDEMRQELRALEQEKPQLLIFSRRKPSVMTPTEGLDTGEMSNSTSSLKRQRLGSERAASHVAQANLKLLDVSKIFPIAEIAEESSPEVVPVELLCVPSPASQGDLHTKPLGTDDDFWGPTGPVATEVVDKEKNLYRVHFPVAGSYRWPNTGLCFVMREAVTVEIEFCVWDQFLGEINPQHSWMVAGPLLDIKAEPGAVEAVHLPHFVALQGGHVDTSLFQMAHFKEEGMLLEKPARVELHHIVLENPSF
Sequence of NACHT, LRR and PYD domains-containing protein 1 (Q9C000 1213-1473 limits assumed): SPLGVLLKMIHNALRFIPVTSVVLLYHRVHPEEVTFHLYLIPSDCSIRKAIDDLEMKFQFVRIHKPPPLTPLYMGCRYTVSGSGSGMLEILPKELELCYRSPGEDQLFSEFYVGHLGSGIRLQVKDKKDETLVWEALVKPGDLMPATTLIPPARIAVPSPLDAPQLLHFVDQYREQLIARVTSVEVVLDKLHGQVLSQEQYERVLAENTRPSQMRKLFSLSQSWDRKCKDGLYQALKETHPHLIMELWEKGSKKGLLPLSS
Sequence of NS3 (A3EZJ3 whole entry, the tested form may be a part): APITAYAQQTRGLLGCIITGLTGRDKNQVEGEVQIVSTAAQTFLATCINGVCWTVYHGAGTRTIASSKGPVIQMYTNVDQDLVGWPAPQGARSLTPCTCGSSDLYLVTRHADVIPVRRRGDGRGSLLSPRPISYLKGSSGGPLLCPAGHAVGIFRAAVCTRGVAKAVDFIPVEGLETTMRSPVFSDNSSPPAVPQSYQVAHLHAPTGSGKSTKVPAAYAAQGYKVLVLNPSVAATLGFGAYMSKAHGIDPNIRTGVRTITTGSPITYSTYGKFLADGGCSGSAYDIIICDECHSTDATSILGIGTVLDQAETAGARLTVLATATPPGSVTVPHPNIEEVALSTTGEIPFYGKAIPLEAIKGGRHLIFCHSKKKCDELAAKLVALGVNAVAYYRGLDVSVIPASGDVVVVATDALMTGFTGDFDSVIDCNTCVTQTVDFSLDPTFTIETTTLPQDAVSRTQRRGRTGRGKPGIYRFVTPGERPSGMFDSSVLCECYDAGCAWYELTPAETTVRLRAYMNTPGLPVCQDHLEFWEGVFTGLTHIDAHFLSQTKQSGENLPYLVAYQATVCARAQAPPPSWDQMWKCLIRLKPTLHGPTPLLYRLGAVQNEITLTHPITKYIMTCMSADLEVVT
Sequence of Phospholipase A2 (P04054 whole entry, the tested form may be a part): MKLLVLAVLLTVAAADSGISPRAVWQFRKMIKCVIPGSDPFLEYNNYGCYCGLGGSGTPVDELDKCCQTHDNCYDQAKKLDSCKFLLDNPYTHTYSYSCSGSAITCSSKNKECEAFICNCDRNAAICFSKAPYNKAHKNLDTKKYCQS
Sequence of Tumor necrosis factor (P01375 whole entry, the tested form may be a part): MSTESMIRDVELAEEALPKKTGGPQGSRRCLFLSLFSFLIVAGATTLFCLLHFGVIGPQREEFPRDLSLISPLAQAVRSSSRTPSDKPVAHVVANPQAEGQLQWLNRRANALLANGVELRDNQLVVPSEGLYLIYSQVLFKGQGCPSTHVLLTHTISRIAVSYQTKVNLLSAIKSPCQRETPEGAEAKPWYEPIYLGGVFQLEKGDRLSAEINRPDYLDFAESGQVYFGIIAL

CC1CCCCC1NC(=O)COC(=O)c1c2c(nc3ccccc13)/C(=C/c1ccco1)CC2 (centres undefined)
CC50 [1]: > 40 µM (active) | IC50 (NS3): 11.1 µM (not active) | IC50 [2]: 10.6 µM (active) | IC50 (Phospholipase A2): 8.31 µM (active) | IC50 [3]: > 100 µM (inactive) | IC50 (Cysteine protease ATG4B): 14.4 µM (active)

COc1ccc(C(=O)Nc2oc(-c3ccccc3)c(-c3ccccc3)c2C#N)cc1OC
CC50 [4]: > 40 µM (active)

CCOCCCn1c(=N)c(C(N)=S)cc2c(=O)n3cccc(C)c3nc21
IC50 [2]: 68.8 µM (inactive) | IC50 [3]: 0.257 µM (active)

O=[N+]([O-])c1cc(C(F)(F)F)ccc1NCCc1c[nH]c2ccc(O)cc12
IC50 [5]: 7.48 µM (not active) | CC50 [4]: > 40 µM (active)

C=C(C)C(=O)Nc1nnc(-c2cccs2)s1
IC50 (Saccharomyces cerevisiae): 15 µM (active) | IC50 [6]: 11 µM (active)

O=C(Nc1ncnc2sc3c(c12)CCCCC3)c1ccc(F)cc1
IC50 (Coagulation factor XII): > 50 µM (inactive)

COC(=O)c1c(NC(=O)c2ccc(Cl)cc2)sc2c1CCCC2
IC50 (Tumor necrosis factor): > 20 µM (inactive) | IC50 [7]: > 20 µM (inactive) | IC50 (HEK293): > 20 µM (inactive)

c1ccc(Nc2nc(-c3ccccc3)[n+](-c3ccccc3)s2)cc1
IC50 [8]: 4.99 µM (inactive)

CN(C)c1ccc(C(=S)N2CCOCC2)cc1 [(4-(DIMETHYLAMINO)PHENYL)(MORPHOLINO)METHANETHIONE]
IC50 (Coagulation factor XII): > 50 µM (inactive)
